A value given as a limit tells only on which side of the number the result lay.

The source of these data is the Kinase Knowledgebase extract (Sharma et al. 2016).

The target in the assay is PIK3CG (human) (UniProt P48736). Nature of the assay: Assessment of PIK3CG Kinase Activity.
PIK3CG (human), sequence (P48736 whole entry, looked up): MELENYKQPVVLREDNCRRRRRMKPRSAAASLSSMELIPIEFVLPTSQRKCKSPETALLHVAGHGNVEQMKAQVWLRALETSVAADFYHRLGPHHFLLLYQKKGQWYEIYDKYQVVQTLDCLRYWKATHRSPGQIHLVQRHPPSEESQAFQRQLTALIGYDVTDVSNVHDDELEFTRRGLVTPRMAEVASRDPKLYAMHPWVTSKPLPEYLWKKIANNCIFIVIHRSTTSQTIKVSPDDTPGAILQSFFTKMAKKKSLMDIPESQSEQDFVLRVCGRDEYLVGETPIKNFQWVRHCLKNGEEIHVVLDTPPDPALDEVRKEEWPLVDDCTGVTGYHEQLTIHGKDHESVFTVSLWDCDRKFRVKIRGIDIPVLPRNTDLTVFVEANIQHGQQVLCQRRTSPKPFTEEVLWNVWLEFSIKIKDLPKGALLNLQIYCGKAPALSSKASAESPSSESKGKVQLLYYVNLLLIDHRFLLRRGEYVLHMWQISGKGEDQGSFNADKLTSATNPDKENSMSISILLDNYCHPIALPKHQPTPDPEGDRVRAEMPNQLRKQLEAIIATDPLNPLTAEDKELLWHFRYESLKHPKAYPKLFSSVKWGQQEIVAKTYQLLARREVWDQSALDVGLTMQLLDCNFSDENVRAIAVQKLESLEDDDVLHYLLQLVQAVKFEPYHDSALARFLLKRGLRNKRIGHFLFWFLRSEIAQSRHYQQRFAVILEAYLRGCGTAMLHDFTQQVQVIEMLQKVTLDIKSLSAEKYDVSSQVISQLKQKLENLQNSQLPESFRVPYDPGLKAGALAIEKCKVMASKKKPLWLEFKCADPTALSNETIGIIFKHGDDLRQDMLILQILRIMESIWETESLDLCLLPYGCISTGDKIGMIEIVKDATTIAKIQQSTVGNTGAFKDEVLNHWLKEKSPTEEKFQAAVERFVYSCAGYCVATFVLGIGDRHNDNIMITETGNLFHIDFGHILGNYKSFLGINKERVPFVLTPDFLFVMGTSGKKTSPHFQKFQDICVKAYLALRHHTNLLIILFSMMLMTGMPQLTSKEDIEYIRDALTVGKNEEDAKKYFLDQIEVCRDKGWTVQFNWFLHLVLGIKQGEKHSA
Take `CNC(=O)Nc1nc2c(s1)-c1nc(-c3ccccc3Br)ncc1CC2`: the IC50 (as a rule, the concentration that gives 50% inhibition) is less than 0.8 µM.
In turn, `COc1cccc(CCNC(=O)Nc2nc3c(s2)-c2nc(-c4ccccc4Cl)ncc2CC3)c1OC` displayed an IC50 of less than 0.8 µM.
The result for `O=C(NCCC(=O)N1CCOCC1)Nc1nc2c(s1)-c1nc(-c3ccccc3Cl)ncc1CC2` reads less than 0.8 µM; that for `O=C(NCC1CC1)Nc1nc2c(s1)-c1nc(-c3ccccc3Cl)ncc1CC2`, less than 0.8 µM; that for `CC(C)NC(=O)N[C@H]1CCN(C(=O)Nc2nc3c(s2)-c2nc(-c4ccccc4Cl)ncc2CC3)C1`, less than 0.8 µM.
To `O=C(NCc1ccccc1-n1cccn1)Nc1nc2c(s1)-c1nc(-c3ccccc3Cl)ncc1CC2` belongs less than 0.8 µM; to `CC(C)c1noc(CCNC(=O)Nc2nc3c(s2)-c2nc(-c4ccccc4Br)ncc2CC3)n1`, less than 0.8 µM.
Compound `CC(C)NC(=O)c1cccc(CNC(=O)Nc2nc3c(s2)-c2nc(-c4ccccc4Cl)ncc2CC3)c1` had an IC50 of less than 0.8 µM.
In turn, `CN(Cc1cccc(CNC(=O)Nc2nc3c(s2)-c2nc(-c4ccccc4Cl)ncc2CC3)c1)C(=O)OC(C)(C)C` showed an IC50 of less than 0.8 µM.
Regarding `O=C(NCc1cccc(N2CCOC2=O)c1)Nc1nc2c(s1)-c1nc(-c3ccccc3Cl)ncc1CC2`, the 50% inhibitory concentration (IC50) was less than 0.8 µM.
As to `O=C(NCc1ccc2cc[nH]c2c1)Nc1nc2c(s1)-c1nc(-c3ccccc3Cl)ncc1CC2`, the IC50 is less than 0.8 µM.
To `O=C1Cc2ccccc2CN1CC1CCN(C(=O)Nc2nc3c(s2)-c2nc(-c4ccccc4Cl)ncc2CC3)C1` (stereo unspecified) belongs less than 0.8 µM; to `CC(C)C(=O)N[C@@H]1CCN(C(=O)Nc2nc3c(s2)-c2nc(-c4ccccc4Cl)ncc2CC3)C1`, less than 0.8 µM; to `CC(C)(C)OCCNC(=O)Nc1nc2c(s1)-c1nc(-c3ccccc3Cl)ncc1CC2`, less than 0.8 µM.
Regarding `CC(C)(C)OC(=O)N1CCCC(CNC(=O)Nc2nc3c(s2)-c2nc(-c4ccccc4Cl)ncc2CC3)C1` (stereo unspecified), the IC50 is less than 0.8 µM.
Turning to `O=C(Nc1nc2c(s1)-c1nc(-c3ccccc3Cl)ncc1CC2)N1CCC(NC(=O)C(F)(F)F)C1` (stereo unspecified), the concentration for half-maximal inhibition (IC50) was less than 0.8 µM.
To `O=C(Nc1nc2c(s1)-c1nc(-c3ccccc3Cl)ncc1CC2)N1CCOCC1` belongs less than 0.8 µM; to `CC(C)(C)c1ncc2c(n1)-c1sc(NC(N)=O)nc1CC2`, less than 0.8 µM.
The result for `CC(C)c1cccc(CNC(=O)Nc2nc3c(s2)-c2nc(-c4ccccc4Cl)ncc2CC3)c1` reads less than 0.8 µM; that for `Cn1cc(CNC(=O)Nc2nc3c(s2)-c2nc(-c4ccccc4C(F)(F)F)ncc2CC3)cn1`, less than 0.8 µM.
As to `NC(=O)Nc1nc2c(s1)-c1nc(-c3ccccc3C(F)(F)F)ncc1CC2`, the concentration for half-maximal inhibition (IC50) is less than 0.8 µM.
To `CCn1cnc(CCNC(=O)Nc2nc3c(s2)-c2nc(-c4ccccc4Cl)ncc2CC3)c1` belongs less than 0.8 µM.
Compound `O=C(Nc1nc2c(s1)-c1nc(-c3ccccc3Cl)ncc1CC2)N1CCCC(c2nc3ccccc3[nH]2)C1` (stereo unspecified) returned an IC50 of less than 0.8 µM.
To `CC(C)(C)NC(=O)CCNC(=O)Nc1nc2c(s1)-c1nc(-c3ccccc3Cl)ncc1CC2` belongs less than 0.8 µM; to `COc1ccc(OC)c(CNC(=O)Nc2nc3c(s2)-c2nc(-c4ccccc4Cl)ncc2CC3)c1`, less than 0.8 µM.
The result for `O=C(NCCn1ccnc1)Nc1nc2c(s1)-c1nc(-c3ccccc3Cl)ncc1CC2` reads less than 0.8 µM; that for `CC(C)(C)OC(=O)N1CCC[C@H]1CNC(=O)Nc1nc2c(s1)-c1nc(-c3ccccc3Cl)ncc1CC2`, less than 0.8 µM.
The result for `O=C(Nc1nc2c(s1)-c1nc(-c3ccccc3Cl)ncc1CC2)N1CCCC(c2ccccc2O)C1` (stereo unspecified) reads less than 0.8 µM.
As to `CNC(=O)c1cccc(CNC(=O)Nc2nc3c(s2)-c2nc(-c4ccccc4Cl)ncc2CC3)c1`, the IC50 is less than 0.8 µM.
To `O=C(Nc1nc2c(s1)-c1nc(-c3ccccc3Cl)ncc1CC2)NC1CC1` belongs less than 0.8 µM.
To `CNC(=O)Nc1nc2c(s1)-c1nc(-c3ccccc3C(F)(F)F)ncc1CC2` belongs less than 0.8 µM; to `CC(C)(C)OC(=O)N1CCN(c2ccc(NC(=O)Nc3nc4c(s3)-c3nc(-c5ccccc5Cl)ncc3CC4)cc2)CC1`, less than 0.8 µM.
On to `NC(=O)Nc1nc2c(s1)-c1nc(-c3ccccc3Cl)ncc1CC2`, for which the IC50 is less than 0.8 µM.
On to `CC(=O)N(C)c1cccc(CNC(=O)Nc2nc3c(s2)-c2nc(-c4ccccc4Cl)ncc2CC3)c1`, for which the IC50 is less than 0.8 µM.
With `CC(C)(C)OC(=O)CC1(O)CCN(C(=O)Nc2nc3c(s2)-c2nc(-c4ccccc4Cl)ncc2CC3)CC1`, the IC50 is less than 0.8 µM.
The result for `CC(C)(C)OC(=O)N1CCC[C@@H]1CNC(=O)Nc1nc2c(s1)-c1nc(-c3ccccc3Cl)ncc1CC2` reads less than 0.8 µM.
`CC(C)OCCCNC(=O)Nc1nc2c(s1)-c1nc(-c3ccccc3Cl)ncc1CC2` had an IC50 of less than 0.8 µM.
To `O=C(Nc1nc2c(s1)-c1nc(-c3ccccc3Cl)ncc1CC2)N1CCC(n2cnc3ccccc32)CC1` belongs less than 0.8 µM; to `CN1CCN(C(=O)N[C@H]2CCN(C(=O)Nc3nc4c(s3)-c3nc(-c5ccccc5Cl)ncc3CC4)C2)CC1`, less than 0.8 µM.
In turn, `CN(C)CC(=O)N[C@H]1CCN(C(=O)Nc2nc3c(s2)-c2nc(-c4ccccc4Cl)ncc2CC3)C1` yielded an IC50 of less than 0.8 µM.
The result for `CC(C)C(=O)N[C@H]1CCN(C(=O)Nc2nc3c(s2)-c2nc(-c4ccccc4Cl)ncc2CC3)C1` reads less than 0.8 µM.
To `O=C(NCc1cc(C2CC2)n[nH]1)Nc1nc2c(s1)-c1nc(-c3ccccc3C(F)(F)F)ncc1CC2` belongs less than 0.8 µM.
The result for `COC(=O)N[C@H]1CCN(C(=O)Nc2nc3c(s2)-c2nc(-c4ccccc4Cl)ncc2CC3)C1` reads less than 0.8 µM; that for `O=C(Nc1nc2c(s1)-c1nc(-c3ccccc3Cl)ncc1CC2)N1CCCC1`, less than 0.8 µM.
`CC1(C)C(c2ccccc2)CCN1C(=O)Nc1nc2c(s1)-c1nc(-c3ccccc3Cl)ncc1CC2` (stereo unspecified) returned a half-inhibitory concentration (IC50) of less than 0.8 µM.
As to `O=C(NCCc1ccc2c(c1)OCCO2)Nc1nc2c(s1)-c1nc(-c3ccccc3Cl)ncc1CC2`, the IC50 was less than 0.8 µM.
Turning to `CC(C)c1nnc(CCNC(=O)Nc2nc3c(s2)-c2nc(-c4ccccc4C(F)(F)F)ncc2CC3)o1`, the IC50 is less than 0.8 µM.
The result for `O=C(NCCc1cccc(N2CCNC2=O)c1)Nc1nc2c(s1)-c1nc(-c3ccccc3Cl)ncc1CC2` reads less than 0.8 µM; that for `CN(C)C(=O)Nc1nc2c(s1)-c1nc(-c3ccccc3C(F)(F)F)ncc1CC2`, less than 0.8 µM.
To `CNC(=O)Nc1nc2c(s1)-c1nc(-c3ccccc3Cl)ncc1CC2` belongs less than 0.8 µM.
In the case of `CC(C)c1nnc(CCNC(=O)Nc2nc3c(s2)-c2nc(-c4ccccc4Br)ncc2CC3)o1`, the IC50 is less than 0.8 µM.
`O=C(NCc1cccc(N2CCNC2=O)c1)Nc1nc2c(s1)-c1nc(-c3ccccc3Cl)ncc1CC2` yielded an IC50 of less than 0.8 µM.
`CC(C)(C)OC(=O)N1CCC(CNC(=O)Nc2nc3c(s2)-c2nc(-c4ccccc4Cl)ncc2CC3)CC1` registered an IC50 of less than 0.8 µM.
The result for `O=C(NCCc1nc(C2CC2)no1)Nc1nc2c(s1)-c1nc(-c3ccccc3Cl)ncc1CC2` reads less than 0.8 µM; that for `COC(=O)CNC(=O)Nc1nc2c(s1)-c1nc(-c3ccccc3Cl)ncc1CC2`, less than 0.8 µM.
As to `CC(C)(C)OC(=O)Nc1cccc(CNC(=O)Nc2nc3c(s2)-c2nc(-c4ccccc4Cl)ncc2CC3)c1`, the IC50 is less than 0.8 µM.
`O=C(NCCc1cccnc1)Nc1nc2c(s1)-c1nc(-c3ccccc3Cl)ncc1CC2` gave an IC50 of less than 0.8 µM.
To `CCn1cc(CNC(=O)Nc2nc3c(s2)-c2nc(-c4ccccc4Cl)ncc2CC3)cn1` belongs less than 0.8 µM.
As for `CC(C)COC(=O)N[C@@H]1CCN(C(=O)Nc2nc3c(s2)-c2nc(-c4ccccc4Cl)ncc2CC3)C1`, the half-maximal inhibitory concentration (IC50) was less than 0.8 µM.
Compound `CC(C)CNC(=O)Nc1nc2c(s1)-c1nc(-c3cccc(F)c3Cl)ncc1CC2` returned a half-inhibitory concentration (IC50) of less than 0.8 µM.
The result for `CN1CCN(Cc2ccc(NC(=O)Nc3nc4c(s3)-c3nc(-c5ccccc5Cl)ncc3CC4)cc2)CC1` reads less than 0.8 µM; that for `CC(C)(C)OC(=O)NC1CCN(C(=O)Nc2nc3c(s2)-c2nc(-c4ccccc4Cl)ncc2CC3)C1` (stereo unspecified), less than 0.8 µM; that for `O=C(NCc1cccc(C(=O)NC2CCCCC2)c1)Nc1nc2c(s1)-c1nc(-c3ccccc3Cl)ncc1CC2`, less than 0.8 µM.
Turning to `Cn1ccnc1CNC(=O)Nc1nc2c(s1)-c1nc(-c3ccccc3Cl)ncc1CC2`, the IC50 was less than 0.8 µM.
Compound `O=C(CCNC(=O)Nc1nc2c(s1)-c1nc(-c3ccccc3Cl)ncc1CC2)NC1CCCC1` registered a 50% inhibitory concentration (IC50) of less than 0.8 µM.
With `O=C(NCc1ccc2c(c1)OCO2)Nc1nc2c(s1)-c1nc(-c3ccccc3Cl)ncc1CC2`, the half-inhibitory concentration (IC50) is less than 0.8 µM.
The compound `COCCNC(=O)CCNC(=O)Nc1nc2c(s1)-c1nc(-c3ccccc3Cl)ncc1CC2` displayed a concentration for half-maximal inhibition (IC50) of less than 0.8 µM.
`CC(C)N(C)C(=O)Nc1cccc(CNC(=O)Nc2nc3c(s2)-c2nc(-c4ccccc4Cl)ncc2CC3)c1`: the IC50 is less than 0.8 µM.
To `CN(C)S(=O)(=O)Nc1cccc(CNC(=O)Nc2nc3c(s2)-c2nc(-c4ccccc4Cl)ncc2CC3)c1` belongs less than 0.8 µM; to `CCc1cnc(CCNC(=O)Nc2nc3c(s2)-c2nc(-c4ccccc4Br)ncc2CC3)o1`, less than 0.8 µM.
Compound `CC(C)c1nnc(CCNC(=O)Nc2nc3c(s2)-c2nc(-c4ccccc4Cl)ncc2CC3)o1` gave a concentration for half-maximal inhibition (IC50) of less than 0.8 µM.
`CCCn1cnc(CCNC(=O)Nc2nc3c(s2)-c2nc(-c4ccccc4Cl)ncc2CC3)c1` registered an IC50 of less than 0.8 µM.
To `CC(C)CC(=O)N[C@H]1CCN(C(=O)Nc2nc3c(s2)-c2nc(-c4ccccc4Cl)ncc2CC3)C1` belongs less than 0.8 µM; to `CC(C)(C)OC(=O)NCC1CCCN1C(=O)Nc1nc2c(s1)-c1nc(-c3ccccc3Cl)ncc1CC2` (stereo unspecified), less than 0.8 µM.
To `COc1cccc(CNC(=O)Nc2nc3c(s2)-c2nc(-c4ccccc4Cl)ncc2CC3)c1OC` belongs less than 0.8 µM.
To `O=C(NCc1cccc(C(=O)N2CCCC2)c1)Nc1nc2c(s1)-c1nc(-c3ccccc3Cl)ncc1CC2` belongs less than 0.8 µM; to `O=C(Nc1nc2c(s1)-c1nc(-c3cccc(F)c3Cl)ncc1CC2)NC1CC1`, less than 0.8 µM.
Consider `O=C(Nc1nc2c(s1)-c1nc(-c3ccccc3Cl)ncc1CC2)N1CC[C@H](NS(=O)(=O)N2CCCC2)C1`, for which the IC50 is less than 0.8 µM.
The result for `O=C(NCc1cc(C2CC2)n[nH]1)Nc1nc2c(s1)-c1nc(-c3ccccc3Br)ncc1CC2` reads less than 0.8 µM; that for `CN(C)CCCCNC(=O)Nc1nc2c(s1)-c1nc(-c3ccccc3Cl)ncc1CC2`, less than 0.8 µM; that for `NC(=O)Nc1nc2c(s1)-c1nc(-c3ccccc3F)ncc1CC2`, less than 0.8 µM.
